The target in one test is T1, PARP3 (Homo sapiens, UniProt Q9Y6F1).
T1 construct: made in house
The experiment in a line: PARP3 biochemical assay. The following applies: > under 50% inhibition. Here is the method: The enzymatic assay measures unreacted NAD^+, which is chemically reacted into a fluorescent compound.[53] […] All reactions were performed at ambient temperature.
The assay conditions for the other PARP enzymes were used as previously described.[39] Reference compound OD336 behaved in this assay as previously reported.[28]

The test system of the next test is COLO 320DM cells. The experiment in a line: Western blot of cytoplasmic and nuclear lysates of treated COLO 320DM cells. The class given is cell-based, human. How it is done: After 5 days, the antiproliferative effect of compound treatment was measured at 490 nm. Mean value ± standard deviation (SD) for one representative experiment of more than three repeated assays, each with six replicates, are shown. […] (b) Representative immunoblots of cytoplasmic TNKS1/2, AXIN1, AXIN2, and cytoplasmic and nuclear transcriptionally active β-catenin (non-phospho) and β-catenin. […] For (b) and (c), control = 0.001% DMSO. (c) Real-time RT-qPCR analyses of WNT/β-catenin signaling target genes (AXIN2, DKK1, NKD1, and APCDD1). Boxplots show median, first and third quartiles, and maximum and minimum whiskers for combined data from three independent experiments with three replicates each. Dotted lines depict the control mean value = 1. For (a) and (c), analysis of variance (ANOVA) tests (Holm–Sidak method, versus control) are indicated by *** (p < 0.001) and * (p < 0.05), while ANOVA on ranks tests (Dunn’s method, versus control) are indicated by ^† (p < 0.05).
Western blot analysis of nuclear and cytoplasmic lysates from compound-treated COLO 320DM cells was performed as previously described.[39],[50]

For a further test, the target named is T2, TNKS2 (Homo sapiens, UniProt Q9H2K2).
T2 construct: TNKS2 (residues 873–1162); made in house
T2 sequence (Q9H2K2 873-1162): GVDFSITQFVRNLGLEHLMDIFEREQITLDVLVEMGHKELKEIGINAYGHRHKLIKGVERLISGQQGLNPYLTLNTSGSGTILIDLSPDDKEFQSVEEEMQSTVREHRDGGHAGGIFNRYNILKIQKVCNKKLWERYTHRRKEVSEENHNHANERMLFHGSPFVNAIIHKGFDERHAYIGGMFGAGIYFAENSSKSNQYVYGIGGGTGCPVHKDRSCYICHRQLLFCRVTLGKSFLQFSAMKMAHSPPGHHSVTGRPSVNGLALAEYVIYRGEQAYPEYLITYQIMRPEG
Nature of the test: TNKS2 biochemical assay (unreacted NAD+ fluorescence). Here is the method: New compounds were prepared in half-log dilution series, and the reactions were carried out in quadruplicates with protein and compound controls to exclude the effect of compound autofluorescence. All reactions were performed at ambient temperature. TNKS1 (20 nM) or TNKS2 (5 nM) was incubated for 20 h in assay buffer (50 mM Bis-Tris propane (BTP), pH 7.0, 0.5 mM Tris(2-carboxyethyl)phosphine (TCEP), 0.01% Triton X-100) with compound and 10 μM or 500 nM NAD^+, respectively.

The target in the next test is T3, PARP1 (Homo sapiens, UniProt P09874).
T3 construct: made in house
T3 sequence (P09874 whole entry): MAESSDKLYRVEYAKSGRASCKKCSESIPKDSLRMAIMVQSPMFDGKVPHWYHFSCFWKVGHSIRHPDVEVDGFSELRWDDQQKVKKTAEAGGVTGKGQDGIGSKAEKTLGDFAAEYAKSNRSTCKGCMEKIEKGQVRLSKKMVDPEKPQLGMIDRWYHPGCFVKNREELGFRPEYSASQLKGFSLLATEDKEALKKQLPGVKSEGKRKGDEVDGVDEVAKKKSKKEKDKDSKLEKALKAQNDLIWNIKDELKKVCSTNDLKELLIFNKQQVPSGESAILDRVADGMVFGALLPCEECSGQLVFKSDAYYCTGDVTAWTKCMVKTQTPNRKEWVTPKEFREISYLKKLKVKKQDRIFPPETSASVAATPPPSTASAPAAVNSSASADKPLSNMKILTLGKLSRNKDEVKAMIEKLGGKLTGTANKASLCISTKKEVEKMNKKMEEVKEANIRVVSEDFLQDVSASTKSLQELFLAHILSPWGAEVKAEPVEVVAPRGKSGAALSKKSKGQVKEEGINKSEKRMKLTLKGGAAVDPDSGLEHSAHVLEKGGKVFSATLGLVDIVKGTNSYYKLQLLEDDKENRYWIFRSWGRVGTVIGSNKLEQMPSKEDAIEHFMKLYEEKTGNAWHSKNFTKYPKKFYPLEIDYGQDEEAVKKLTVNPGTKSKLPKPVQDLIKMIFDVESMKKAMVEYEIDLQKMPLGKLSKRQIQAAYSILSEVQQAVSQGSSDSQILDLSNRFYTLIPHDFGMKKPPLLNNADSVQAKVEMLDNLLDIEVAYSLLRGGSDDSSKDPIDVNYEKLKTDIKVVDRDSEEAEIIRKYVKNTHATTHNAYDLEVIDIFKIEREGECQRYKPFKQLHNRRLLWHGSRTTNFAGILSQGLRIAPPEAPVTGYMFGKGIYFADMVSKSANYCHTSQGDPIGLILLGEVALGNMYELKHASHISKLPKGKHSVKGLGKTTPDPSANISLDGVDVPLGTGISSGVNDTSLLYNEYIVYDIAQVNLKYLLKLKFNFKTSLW
Nature of the test: PARP1 biochemical assay. To be noted: > under 50% inhibition. Here is the method: All reactions were performed at ambient temperature.
The assay conditions for the other PARP enzymes were used as previously described.[39]

Structures are written as SMILES. Where two headings read alike, the source gives them in different places. Where only a bound is given, the exact number is not on record here.

T1 sequence (Q9Y6F1 whole entry): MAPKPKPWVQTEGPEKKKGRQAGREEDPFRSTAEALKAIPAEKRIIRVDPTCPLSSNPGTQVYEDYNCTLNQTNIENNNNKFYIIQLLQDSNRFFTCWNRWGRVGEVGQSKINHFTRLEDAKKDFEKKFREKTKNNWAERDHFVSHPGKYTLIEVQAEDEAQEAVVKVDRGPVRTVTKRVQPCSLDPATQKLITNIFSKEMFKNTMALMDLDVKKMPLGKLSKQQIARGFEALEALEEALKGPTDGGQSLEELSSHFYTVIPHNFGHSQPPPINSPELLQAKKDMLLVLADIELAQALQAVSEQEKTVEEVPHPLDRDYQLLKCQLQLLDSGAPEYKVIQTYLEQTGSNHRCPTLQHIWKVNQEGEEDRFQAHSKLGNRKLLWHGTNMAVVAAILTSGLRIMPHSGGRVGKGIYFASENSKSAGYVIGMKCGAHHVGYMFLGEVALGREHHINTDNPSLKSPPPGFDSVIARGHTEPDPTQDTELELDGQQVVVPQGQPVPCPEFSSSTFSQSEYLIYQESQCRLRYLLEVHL

With `CCOc1ccc(-c2nnc([C@H]3C[C@H](NC(=O)c4cccc5nccnc45)C3)n2-c2ccccc2F)nc1` [Compound 24, N-(trans-3-(5-(5-Ethoxypyridin-2-yl)-4-(2-fluorophenyl)-4H-1,2,4-triazol-3-yl)cyclobutyl)quinoxaline-5-carboxamide], the IC50 (usually the concentration that gives 50% inhibition) against PARP3 was more than 100000 nM; on TNKS2 (IC50 TNKS2), 1.8 nM; at TNKS2 (IC50 TNKS2, TNKS2 5 nM, 500 nM NAD+, 20 h, quadruplicates, 95% confidence intervals in parentheses, 24: averages of multiple independent measurements) it was 1.6 nM; against TNKS2 (TNKS2 pIC50 ± SEM, TNKS2 5 nM, 500 nM NAD+, 20 h), 1.62 nM; on TNKS2 (read-out: IC50 TNKS2), 2 nM; against PARP1, more than 100000 nM. For the same molecule, in the test on COLO 320DM cells (cytoplasmic and nuclear fractions), the “level of transcriptionally active β-catenin (nonphosphorylated)” value was “reduced”. In the test with COLO 320DM cells (dose-dependent, immunoblot), the TNKS1/2 protein levels entry is reported as “either increased or decreased”. Also, in the test on COLO 320DM cells (immunoblot), the “AXIN1 and AXIN2 protein levels” value is reported as “stabilized”. Moreover, the “TNKS2 pIC50 ± SEM” value on TNKS2 (TNKS2 5 nM, 500 nM NAD+, 20 h) is recorded as 2.0 (8.71 ± 0.069).
